Entries after “also recorded” stand apart in the source; their conditions may differ.
Key:
[1] = test system: P. aeruginosa infected mice; test: Animal infection model, P. aeruginosa; type: in vivo, mouse; conditions: P. aeruginosa i.p.; GGL27 500 μg s.c. after 1 h; P<0.001
Protocol: (§1) Animal infection model—Animals were housed under standard conditions of light and temperature and had free access to standard laboratory chow and water. P. aeruginosa 15159 bacteria were grown to logarithmic phase (OD620˜0.5), harvested, washed in PBS, diluted in the same buffer to 2×10^8 cfu/ml, and kept on ice until injection. Hundred microliter of the bacterial suspension was injected intraperitoneally (i.p.) into female Balb/c mice. Sixty minutes after the bacterial injection, 0.5 mg GGL27 or buffer alone was injected subcutaneously (s.c.) into the mice. In a corresponding E. coli infection model, bacteria were grown to early logarithmic phase (OD620˜0.4), harvested, washed in PBS, diluted in the same buffer to 1×10^8 cfu/ml, and kept on ice until injection. Hundred microliter of the bacterial suspension was injected i.p. into female Balb/c mice. Thirty minutes after the bacterial injection, 0.2 mg of GGL27 peptide or buffer alone was injected i.p. Data from two independent experiments were pooled.

E. coli infected mice = test: Animal infection model, E. coli; type: in vivo, mouse; conditions: E. coli i.p.; GGL27 200 μg i.p. after 30 min; P<0.001
Protocol: as §1

P. aeruginosa [2] = test: Complement (C1q, C5b-9/MAC, C3a) binding to P. aeruginosa in citrate plasma (immunoblot, flow cytometry); type: cell-based, Pseudomonas aeruginosa; conditions: citrate plasma with GGL27 at 3 μM
Protocol: Flow cytometry analysis—Fifty μl of bacteria (1-2×10^6 cfu) were incubated with 450 μl of human plasma either alone or supplemented with GGL27 (at 3 μM). Samples were incubated for 30 min or 1 h at 37° C., divided into two equal parts, centrifuged, washed with PBS, and resuspended in 100 μl PBS with rabbit polyclonal antibodies against either LGE27 (25), a C-terminal epitope of human C3a, or rabbit polyclonal antibodies against C1q (both at 1:100). The mixtures were subsequently incubated for 1 h at room temperature. Bacteria were pelleted and washed twice with PBS, incubated in 100 μl PBS with goat anti rabbit IgG FITC-labeled antibodies (1:500, Sigma) for 30 min at room temperature and washed twice with PBS. In another experiment bacteria were incubated for 1 h in citrate plasma together with 3 μM TAMRA-labeled GGL27 peptide, then pelleted and washed twice with PBS. Flow cytometry analysis (Becton-Dickinson, Franklin Lakes, N.J.) was performed using a FACS-Calibur flow cytometry system equipped with a 15 mW argon laser turned a 488 nm. […]
SDS-PAGE and immunoblotting—Human citrate plasma (450 μl) was incubated with 50 μl bacteria (1-2×10^9 cfu) either alone or supplemented with the peptide GGL27 at 3 μM. […] Precipitated material and supernatants were dissolved in SDS sample buffer and analyzed under reducing conditions by SDS-PAGE on 16.5% Tris-tricine gels (Clear PAGE™, C.B.S Scientific). […]

E. coli [3] = test: FACS binding of TAMRA labeled peptide to E. coli; parameters: species or system Escherichia coli; conditions: 3 μM TAMRA labeled peptide in human plasma
Protocol: (§2) Flow cytometry analysis—Fifty μl of bacteria (1-2×10^6 cfu) were incubated with 450 μl of human plasma either alone or supplemented with GGL27 (at 3 μM). Samples were incubated for 30 min or 1 h at 37° C., divided into two equal parts, centrifuged, washed with PBS, and resuspended in 100 μl PBS with rabbit polyclonal antibodies against either LGE27 (25), a C-terminal epitope of human C3a, or rabbit polyclonal antibodies against C1q (both at 1:100). The mixtures were subsequently incubated for 1 h at room temperature. Bacteria were pelleted and washed twice with PBS, incubated in 100 μl PBS with goat anti rabbit IgG FITC-labeled antibodies (1:500, Sigma) for 30 min at room temperature and washed twice with PBS. In another experiment bacteria were incubated for 1 h in citrate plasma together with 3 μM TAMRA-labeled GGL27 peptide, then pelleted and washed twice with PBS. Flow cytometry analysis (Becton-Dickinson, Franklin Lakes, N.J.) was performed using a FACS-Calibur flow cytometry system equipped with a 15 mW argon laser turned a 488 nm. The bacterial population was selected by gating with appropriate settings of forward scatter (FSC) and sideward scatter (SSC).

E. coli [4] = test: Complement (C1q, C5b-9/MAC, C3a) binding to E. coli in citrate plasma (immunoblot, flow cytometry); type: cell-based, Escherichia coli; conditions: citrate plasma with GGL27 at 3 μM
Protocol: as §2
SDS-PAGE and immunoblotting—Human citrate plasma (450 μl) was incubated with 50 μl bacteria (1-2×10^9 cfu) either alone or supplemented with the peptide GGL27 at 3 μM. The mixture was incubated for 30 min or 1 h at 37° C., centrifuged, and supernatants and bacteria collected. The bacterial pellet was washed with PBS and bound proteins eluted with 0.1 M glycine-HCl, pH 2.0. The pH of the eluted material was raised to 7.5 with 1 M Tris. Eluted proteins were precipitated by addition of 1 volume of trichloroacetic acid (TCA) to 4 volumes of sample, followed by incubation for 30 min on ice and centrifugation at 15 000 g (4° C. for 20 min). Precipitated material and supernatants were dissolved in SDS sample buffer and analyzed under reducing conditions by SDS-PAGE on 16.5% Tris-tricine gels (Clear PAGE™, C.B.S Scientific). Proteins and peptides were transferred to nitrocellulose membranes (Hybond-C). […]

[5] = test system: E. coli LPS shock in C57BL/6 mice; test: LPS model in vivo (LPS-induced shock): survival, cytokines, lungs; parameters: species or system mouse
Protocol: Histochemistry—For immunostaining, wound biopsies were fixed in 10% formalin, rehydrated and embedded in paraffin. Sections of 5 μm thickness were placed on poly-lysine coated glass slides, deparaffinized in xylene and rehydrated in graded alcohols. The slides were then treated with Dako antigen retrieval solution (Dako) for 40 min at 97° C., and incubated for 24 h at room temperature in a 1:50 dilution of polyclonal antibodies against TFPI (Sigma-Aldrich, in TBS with 1% BSA, 5% goat serum, 0.05% Tween 20). After three 20 min washes in TBS with 0.05% Tween 20, the sections were incubated with alkaline phosphatase conjugated secondary goat anti-rabbit IgG (Dako) diluted 1:1000 in the same buffer as the primary antibody and incubated for another 24 hours, followed by three 20 min washes. Sections were developed with Vulcan Fast Red chromogen (Biocare Medical, Concord, Calif.) and the slides were counterstained with Harris Hematoxylin (EM Science, Gibbstown, N.J.). For histological evaluation of lungs derived from the in vivo LPS-models in mice, tissues were embedded as above, sectioned and stained with hematoxylin and eosin by routine procedures (Histocenter, Gothenburg, Sweden).
LPS model in vivo—Male C57BL/6 mice (8-10 weeks, 22+/−5 g), were injected intraperitoneally with 18 mg E. coli 0111:B4 LPS (Sigma) per kg of body weight. Thirty minutes after LPS injection, 0.5 mg GGL27, GGL27(S), DSE25 or buffer alone was injected intraperitoneally into the mice. Survival and status was followed during seven days. For blood collection and histochemistry, mice were sacrificed 20 h after LPS challenge, and lungs were removed and fixed. These experiments were approved by the Laboratory Animal Ethics Committee of Malmo/Lund.
Cytokine assay—The cytokines IL-6, IL-10, MCP-1, INF-γ, and TNF-α were measured in plasma from mice subjected to LPS (with or without peptide treatment) using the Cytometric bead array; mouse inflammation kit (Becton Dickinson AB) according to the manufacturer's instructions.

P. aeruginosa [6] = test: FACS binding of TAMRA labeled peptide to P. aeruginosa; parameters: species or system Pseudomonas aeruginosa; conditions: 3 μM TAMRA labeled peptide in human plasma
Protocol: as §2

[7] = 20 h after LPS injection, peptide 500 μg

## GGLIKTKRKRKKQRVKIAYEEIFVKNM [GGL27, C-terminal peptide of TFPI, plasmin-generated]
[1]
  survival: prolongs survival; also recorded: prolongation of survival
E. coli infected mice
  survival: prolongs survival; also recorded: prolongation of survival
P. aeruginosa [2]; FACS analysis
  generation and binding of C3a-containing fragments to the bacterial surface: increased generation and binding of these C3a-containing fragments
P. aeruginosa [2]
  C1q/MAC alterations: no significant C1q/MAC alterations
E. coli [3]
  binding to bacteria: avidly bound
E. coli [4]
  binding of C1q to bacteria: enhances; also recorded: enhanced binding of C1q
  formation of MAC: enhances; also recorded: increased formation of MAC
  generation / binding of C3a: enhances; also recorded: significant generation of C3a
[5]; 20 h after LPS injection, GGL27 500 μg
  inflammatory changes in lungs (histochemical analysis): marked attenuation of inflammatory changes; also recorded: marked reduction of inflammation and vascular leakage
[5]; [7]
  IFN-γ in blood: significant reductions
  IL-6 in blood: significant reductions
  IL-10 in blood: increased
  MCP-1 in blood: significant reductions
  TNF-α in blood: significant reductions
  overall (proinflammatory) cytokine release: attenuates proinflammatory cytokines
[5]; E. coli LPS i.p., peptide 500 μg i.p. 30 minutes after, followed 7 days
  survival: significantly increased survival
[5]; mouse model of LPS-shock
  anti-endotoxic effects in vivo: anti-endotoxic effects
P. aeruginosa [6]
  binding to bacteria: avidly bound
